Data as given in US7314858B2, “Retrocyclins: antiviral and antimicrobial peptides” (priority 2001, dated 2008).
“Also recorded” adds a separate entry of the source. Where a SMILES comes first, the peptide text is derived from it. Bridges are numbered along the chain shown (N, C = ends).

Assays:
E. coli ML-35p = experiment: Two-stage radial diffusion assay; assay type: cell-based, Escherichia coli
Protocol: (§1) FIG. 4. Effect of salt on antibacterial activity of circular minidefensins. Human retrocyclin and monkey RTD-1 were tested against our standard lab stains: E. coli ML-35p, P. aeruginosa MR 3007, L. monocytogenes EGD, and S. aureus 930918. The bars show MIC values±SEM values that resulted from 3-6 radial diffusion assays per organism and assay condition.
(§2) The effects of NaCl on the antimicrobial activity of retrocyclin and RTD-1, from two-stage radial diffusion assays, are compared in FIG. 4.

HIV-1 strain IIIB = experiment: HIV-1 IIIB infection of H9 cells, p24 antigen ELISA; assay type: cell-based
Protocol: FIG. 1. Circular minidefensins reduce HIV-1 infection of H9 cells. HIV-I strain IIIB (MOI=10^−2) was incubated with 2.5×10^5 H9 cells in the presence or absence of 20 μg/ml RTD-1, RTD-2 or RTD-3. p24 antigen release was monitored by ELISA on days 3, 6, and 9. Assay sensitivity=10 pg/ml.
Immortalized CD4^+ H9 cells, which are permissive for infection with this strain, were maintained in RPMI supplemented with 10% heat-inactivated fetal calf serum (FCS), 10 mM HEPES, 2 mM glutamine, 100 U of penicillin/ml, and 10 μg of streptomycin/ml (R10 media). Cells (2.5×10^5/100 μl) were incubated with virus (multiplicity of infection (MOI)=10^−2) in the presence or absence of 20 μg/ml RTD-1, RTD-2 or RTD-3 for 3 hrs at 37° C./5% CO2. The cells were washed in R10 media, seeded in 48-well tissue culture plates in 1 ml R10 media, and incubated at 37° C./5% CO2 for 9 days. Aliquots of cell supernatant were removed at the specified time points and analyzed by a sensitive ELISA (DuPont NEN) that quantitates p24 antigen of HIV-1. The three circular rhesus minidefensins were similarly active, inhibiting HIV-1 by 100-1000 fold by 9 days post-inoculation (note the logarithmic scale).
Either HIV-1-permissive H9 cells were used as targets, or primary CD4^+ lymphocytes from HIV-1-seronegative donors generated from freshly purified peripheral blood mononuclear cells (PBMC) stimulated with a CD3-CD8 bispecific monoclonal antibody. After approximately 7 days, when 98% of these cells co-expressed CD3 and CD4, they were infected with HIV-1 with or without retrocyclin or other test peptide. These cells were maintained in RPMI containing 10% FCS supplemented with 2 mM glutamine, 100 U of penicillin/ml, 10 μg of streptomycin/ml, and 50 U of interleukin 2/ml (R10-50 media).
Mature retrocyclin was prepared by a three-step process.

MTT cytotoxicity assay = assay type: cell-based, human; conditions: human, H9 cells
Protocol: FIG. 8. Cytotoxicity of antimicrobial peptides against H9 cells. Retrocyclin, RTD-1 and PG-1 (a porcine-derived peptide with anti-HIV-1 activity) were tested for cytotoxicity using an MTT assay for cell proliferation. Note that the EC50 of Retrocyclin and RTD-1 were >100 μg/ml, concentrations well above their antiviral concentration.
Retrocyclin is not cytotoxic. […] Retrocyclin was not hemolytic for human erythrocytes.

L. monocytogenes EGD = experiment: Two-stage radial diffusion assay; assay type: cell-based, Listeria monocytogenes
Protocol: as §1, §2

With CC[C@H](C)[C@@H]1NC(=O)CNC(=O)[C@H](CCCNC(=N)N)NC(=O)CNC(=O)[C@@H]2CSSC[C@H](NC1=O)C(=O)N[C@@H](CCCNC(=N)N)C(=O)N[C@H]1CSSC[C@H](NC(=O)[C@H](CCCNC(=N)N)NC(=O)[C@@H]3CSSC[C@H](NC(=O)[C@H]([C@@H](C)CC)NC1=O)C(=O)NCC(=O)N[C@@H](CCCNC(=N)N)C(=O)NCC(=O)N[C@@H]([C@@H](C)CC)C(=O)N3)C(=O)N[C@@H]([C@@H](C)CC)C(=O)N2 [RC-100, Retrocyclin] (cyclo(GICRCICGRGICRCICGR); disulfide 3-16, 5-14, 7-12) as the compound, how does the “effect of salt on antimicrobial activity” value (E. coli ML-35p; hypersalinity (175 mM NaCl)) read?
Its value is “only modestly inhibitory”.

What about the antimicrobial activity (E. coli ML-35p; physiological (100 mM) NaCl) of the same compound?
The antimicrobial activity was “strong activity”.

And the hemolysis (human erythrocytes)?
Its hemolysis is “not hemolytic”.

What about the “concentration required for complete protection against HIV-1 infection” value (HIV-1 strain IIIB) of the same compound?
The value was 10 µg/mL.

What about the “inhibition of HIV-1 replication (p24)” value (HIV-1 strain IIIB; H9 cells, IIIB (X4), peptide 10-20 μg/ml) of the same compound?
Its value is “complete suppression; also recorded: antiviral”.

What about the antiviral activity (HIV-1 strain IIIB; at <2 μg/ml, n=5) of the same compound?
The antiviral activity was “no significant antiviral activity”.

And the EC50 (MTT cytotoxicity assay)?
Its EC50 is greater than 100 µg/mL.

And the “effect of salt on antimicrobial activity” value (L. monocytogenes EGD; hypersalinity (175 mM NaCl))?
The value was “only modestly inhibitory”.

What about the antimicrobial activity (L. monocytogenes EGD; physiological (100 mM) NaCl) of the same compound?
The antimicrobial activity was “strong activity”.
